pKi: −log10 of the molar value.
How the values were obtained:
mouse EP3α = molecular target: T1, mouse EP3α (Mus musculus, UniProt P30557); assay: Binding assay using expression cell of prostanoids receptor subtype, EP3α ([3H]-PGE2 binding inhibition, CHO membrane fraction); conditions: 2.5 nM [3H]-PGE2, 1 hour at room temperature, pH 6.0, read-out: Dissociation Constant Ki, EP3α
T1 construct: expressed in transfected cells; host or cells: CHO cells
T1 sequence (P30557 1-365): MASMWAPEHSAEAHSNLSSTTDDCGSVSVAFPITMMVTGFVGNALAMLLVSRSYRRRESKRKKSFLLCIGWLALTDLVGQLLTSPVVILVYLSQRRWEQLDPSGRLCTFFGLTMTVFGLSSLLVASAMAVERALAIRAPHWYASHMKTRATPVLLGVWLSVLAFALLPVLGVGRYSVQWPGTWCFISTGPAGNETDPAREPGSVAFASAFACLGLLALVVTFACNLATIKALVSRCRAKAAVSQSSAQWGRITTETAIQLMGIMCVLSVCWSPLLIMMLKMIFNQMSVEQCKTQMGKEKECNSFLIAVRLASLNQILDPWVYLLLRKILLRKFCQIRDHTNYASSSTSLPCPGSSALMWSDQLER
Experimental: (§1) (i) Binding assay using expression cell of prostanoids receptor subtype
(§2) The preparation of membrane fraction was carried out according to the method of Sugimoto et al. [J. Biol. Chem., 267, 6463-6466 (1992)], using expression CHO cell of the prostanoids receptor subtype (mouse EP1, EP2, EP3α, EP4).
(§3) The standard assay mixture containing membrane fraction (0.5 mg/ml), and [3H]-PGE2 in a final volume of 200 μl was incubated for 1 hour at room temperature. The reaction was terminated by addition of 3 ml of ice-cooled buffer. The mixture was filtered through a GF/B glass filter under reduced pressure. The radioactivity associated with the filter was measured by liquid scintillation counting.
(§4) Kd and Bmax values were determined from Scatchard plots [Ann. N.Y. Acad. Sci., 51, 660 (1949)]. Non-specific binding was calculated as the binding in the presence of an excess (2.5 μM) of unlabeled PGE2. In the measurement of 3H-PGE2 binding inhibitory activity, 2.5 nM of [3H]-PGE2 and various concentrations of the compounds of the present invention were added. The following buffer was used in all reactions.
(§5) Buffer; 10 mM potassium phosphate (pH 6.0), 1 mM EDTA, 10 mM MgCl2, 0.1 M NaCl.
(§6) The dissociation constant Ki (μM) of each compound was calculated by the following equation.

mouse EP1 = molecular target: T2, mouse EP1 (Mus musculus, UniProt P35375); assay: Binding assay using expression cell of prostanoids receptor subtype, EP1 ([3H]-PGE2 binding inhibition, CHO membrane fraction); conditions: 2.5 nM [3H]-PGE2, 1 hour at room temperature, pH 6.0, read-out: Dissociation Constant Ki, EP1
T2 construct: expressed in transfected cells; host or cells: CHO cells
T2 sequence (P35375 1-405): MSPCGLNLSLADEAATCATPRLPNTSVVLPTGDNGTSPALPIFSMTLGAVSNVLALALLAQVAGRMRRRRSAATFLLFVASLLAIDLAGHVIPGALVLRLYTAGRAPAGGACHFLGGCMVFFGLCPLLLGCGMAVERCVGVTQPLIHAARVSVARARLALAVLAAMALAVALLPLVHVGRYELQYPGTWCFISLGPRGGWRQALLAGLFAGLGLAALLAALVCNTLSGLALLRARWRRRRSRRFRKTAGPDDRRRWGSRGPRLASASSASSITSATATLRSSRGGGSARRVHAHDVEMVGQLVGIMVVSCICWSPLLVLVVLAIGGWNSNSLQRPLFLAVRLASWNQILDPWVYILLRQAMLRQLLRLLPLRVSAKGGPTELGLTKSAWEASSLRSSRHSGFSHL
Experimental: as §1, §2, §3, §4, §5, §6

mouse EP2 = molecular target: T3, mouse EP2 (Mus musculus, UniProt Q62053); assay: Binding assay using expression cell of prostanoids receptor subtype, EP2 ([3H]-PGE2 binding inhibition, CHO membrane fraction); conditions: 2.5 nM [3H]-PGE2, 1 hour at room temperature, pH 6.0, read-out: Dissociation Constant Ki, EP2
T3 construct: expressed in transfected cells; host or cells: CHO cells
Experimental: as §1, §2, §3, §4, §5, §6

mouse EP4 = molecular target: T4, mouse EP4 (Mus musculus, UniProt P32240); assay: Binding assay using expression cell of prostanoids receptor subtype, EP4 ([3H]-PGE2 binding inhibition, CHO membrane fraction); conditions: 2.5 nM [3H]-PGE2, 1 hour at room temperature, pH 6.0, read-out: Dissociation Constant Ki, EP4
T4 construct: expressed in transfected cells; host or cells: CHO cells
Experimental: as §1, §2, §3, §4, §5, §6

T4 sequence (P32240 whole entry): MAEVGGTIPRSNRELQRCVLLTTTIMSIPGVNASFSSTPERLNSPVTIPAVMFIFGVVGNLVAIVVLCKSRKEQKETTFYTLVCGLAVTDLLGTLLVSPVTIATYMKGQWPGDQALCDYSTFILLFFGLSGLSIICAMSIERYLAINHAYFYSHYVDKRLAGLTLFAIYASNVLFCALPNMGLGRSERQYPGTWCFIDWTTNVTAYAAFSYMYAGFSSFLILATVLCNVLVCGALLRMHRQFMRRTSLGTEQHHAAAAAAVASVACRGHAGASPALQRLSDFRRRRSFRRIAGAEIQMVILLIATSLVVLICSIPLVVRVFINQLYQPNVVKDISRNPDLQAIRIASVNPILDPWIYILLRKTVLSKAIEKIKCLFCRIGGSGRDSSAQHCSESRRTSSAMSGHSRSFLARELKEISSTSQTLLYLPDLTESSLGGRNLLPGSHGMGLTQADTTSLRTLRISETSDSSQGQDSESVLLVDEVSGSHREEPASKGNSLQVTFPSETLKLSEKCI
T3 sequence (Q62053 whole entry): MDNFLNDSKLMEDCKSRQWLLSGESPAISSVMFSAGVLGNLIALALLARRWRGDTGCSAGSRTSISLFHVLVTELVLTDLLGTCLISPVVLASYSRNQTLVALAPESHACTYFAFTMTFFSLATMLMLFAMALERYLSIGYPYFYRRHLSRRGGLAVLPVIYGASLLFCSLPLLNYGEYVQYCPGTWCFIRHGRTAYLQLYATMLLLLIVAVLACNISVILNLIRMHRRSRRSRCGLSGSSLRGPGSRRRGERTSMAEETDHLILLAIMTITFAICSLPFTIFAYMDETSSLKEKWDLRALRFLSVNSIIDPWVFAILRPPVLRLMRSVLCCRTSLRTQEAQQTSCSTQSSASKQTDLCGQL

SMILES	pKi (mouse EP3α)	pKi (mouse EP1)	pKi (mouse EP2)	pKi (mouse EP4)
CCCCC[C@@H](/C=C/[C@H]1[C@H](OCC)CC(=O)[C@@H]1C/C=C\CCCC(=O)O)OCC [Example 2, 11α,15α-Diethoxy-9-oxoprosta-5Z,13E -dienoic acid]	7.40	< 5.00	6.22	5.23
CCCCC(C)(C)[C@@H](/C=C/[C@H]1[C@H](OC)CC(=O)[C@@H]1C/C=C\CCCC(=O)O)OC [1(b), 11α,15α-Dimethoxy-9-oxo-16,16-dimethylprosta-5Z,13E-dienoic acid]	8.57	6.01	6.28	5.60
COC(/C=C/[C@H]1[C@H](OC)CC(=O)[C@@H]1C/C=C\CCCC(=O)O)COc1ccccc1 (stereo partly drawn) [1(f), 11α,15α-Dimethoxy-9-oxo-16-phenoxy-17,18,19,20-tetranorprosta-5Z,13E-dienoic acid]	8.54	6.51	< 5.00	< 5.00
CCCCCC[C@@H](/C=C/[C@H]1[C@H](OC)CC(=O)[C@@H]1C/C=C\CCCC(=O)O)OC [1(e), 11α,15α-Dimethoxy-9-oxo-20-methylprosta-5Z,13E-dienoic acid]	8.21	5.62	5.89	5.43
CCCCC[C@@H](/C=C/[C@H]1[C@H](OC)CC(=O)[C@@H]1CCCCCCC(=O)O)OC [1(a), 11α,15α-Dimethoxy-9-oxoprosta-13E-enoic acid]	8.20	< 5.00	5.96	5.89
CCCCC[C@@H](/C=C/[C@@H]1[C@@H](C/C=C\CCCC(=O)O)[C@H](Cl)C[C@H]1OC)OC [1(h), 11α,15α-Dimethoxy-9β-chloroprosta-5Z,13E-dienoic acid]	8.77	7.41	7.47	7.14
CCCCC[C@@H](/C=C/[C@H]1[C@H](OC)CC(=O)[C@@H]1C/C=C\CCCC(=O)O)OC [Example 1, 11α,15α-Dimethoxy-9-oxoprosta-5Z,13E-dienoic acid]	8.44	< 5.00	5.62	5.38
